Data as given in ChEMBL document CHEMBL1129938, “Synthesis and biological evaluation of nonclassical 2,4-diamino-5-methylpyrido[2,3-d]pyrimidines with novel side chain substituents as potential inhibitors of dihydrofolate reductases” (J Med Chem, 1997).

Legend:
[1] = target: T1, Dihydrofolate reductase (Rattus norvegicus, UniProt Q920D2)
T1 sequence (Q920D2 whole entry): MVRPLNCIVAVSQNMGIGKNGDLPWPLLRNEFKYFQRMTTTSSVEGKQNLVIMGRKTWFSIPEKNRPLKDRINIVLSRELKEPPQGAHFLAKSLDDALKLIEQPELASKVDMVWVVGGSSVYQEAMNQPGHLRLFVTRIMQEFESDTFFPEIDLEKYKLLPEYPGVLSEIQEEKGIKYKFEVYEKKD
Description: Inhibition of Dihydrofolate Reductase of Rat Liver.

[2] = target: T2, Dihydrofolate reductase (Pneumocystis carinii, UniProt P16184)
T2 sequence (P16184 whole entry): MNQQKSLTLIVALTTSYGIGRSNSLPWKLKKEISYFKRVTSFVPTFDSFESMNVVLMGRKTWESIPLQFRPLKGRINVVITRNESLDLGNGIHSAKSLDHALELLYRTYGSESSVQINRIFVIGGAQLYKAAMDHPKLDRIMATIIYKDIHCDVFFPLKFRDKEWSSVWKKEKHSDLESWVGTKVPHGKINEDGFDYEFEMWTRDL
Description: Inhibition of Dihydrofolate Reductase of Pneumocystis carinii.

[3] = target: T3, Bifunctional dihydrofolate reductase-thymidylate synthase (Toxoplasma gondii, UniProt Q07422)
T3 sequence (Q07422 whole entry): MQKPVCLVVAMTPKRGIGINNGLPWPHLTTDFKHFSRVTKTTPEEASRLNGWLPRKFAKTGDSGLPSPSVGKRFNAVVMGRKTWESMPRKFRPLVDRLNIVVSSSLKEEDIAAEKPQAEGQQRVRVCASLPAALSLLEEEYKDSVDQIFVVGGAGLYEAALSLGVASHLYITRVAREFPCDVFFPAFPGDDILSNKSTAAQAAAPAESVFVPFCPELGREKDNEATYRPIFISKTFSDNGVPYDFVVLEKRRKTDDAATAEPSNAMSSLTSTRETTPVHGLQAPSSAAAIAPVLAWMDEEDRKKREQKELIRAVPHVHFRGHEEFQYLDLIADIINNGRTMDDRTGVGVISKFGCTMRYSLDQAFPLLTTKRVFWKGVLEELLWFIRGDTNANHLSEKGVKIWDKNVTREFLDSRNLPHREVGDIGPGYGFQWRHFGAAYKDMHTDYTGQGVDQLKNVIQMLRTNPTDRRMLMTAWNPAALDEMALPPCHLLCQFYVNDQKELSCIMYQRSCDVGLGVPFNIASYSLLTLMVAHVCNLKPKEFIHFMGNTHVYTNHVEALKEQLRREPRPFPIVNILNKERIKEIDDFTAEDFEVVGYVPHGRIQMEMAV
Description: Inhibition of Dihydrofolate Reductase of Toxoplasma gondii.

[4] = Partition coefficient (logP); assay type: physicochemical; conditions: octanol/water
[5] = Selectivity ratio of Toxoplasma gondii cell culture to the T. gondii (tg) Dihydrofolate Reductase; assay type: functional
[6] = system: CHO; experiment: Cell culture inhibition was assessed by measuring incorporation of [3H]uracil into Toxoplasma gondii cells (CHO cell line); assay type: functional, cell-based; conditions: Cricetulus griseus

Q: For `Cc1c(C)c(-n2cccc2)c(C)c(C)c1NCc1cnc2nc(N)nc(N)c2c1C`, which IC50 [1] is on record?
A: 170 nM

Q: What about the IC50 [2] of the same compound?
A: 620 nM

Q: What about the IC50 [3] of the same compound?
A: 75 nM

Q: With `COc1ccc2c(c1)CCN2Cc1cnc2nc(N)nc(N)c2c1C` as the compound, how does the IC50 [1] read?
A: 170 nM

Q: What about the IC50 [2] of the same compound?
A: 250 nM

Q: And the IC50 [3]?
A: 57 nM

Q: Which IC50 [1] does the source give for `COc1cc2c(cc1OC)CN(Cc1cnc3nc(N)nc(N)c3c1C)CC2` here?
A: 130 nM

Q: What about the IC50 [2] of the same compound?
A: 850 nM

Q: And the IC50 [3]?
A: 110 nM

Q: Which IC50 [1] does the source give for `COc1cc(NCc2cnc3nc(N)nc(N)c3c2C)c(-n2cccc2)cc1OC` here?
A: 3500 nM

Q: What about the IC50 [3] of the same compound?
A: 600 nM

Q: For `COc1ccc(-c2ccccc2)cc1NCc1cnc2nc(N)nc(N)c2c1C`, which IC50 [1] is on record?
A: 440 nM

Q: And the IC50 [3]?
A: 68 nM

Q: And the logP [4]?
A: 4.77

Q: For `COc1ccc2c(ccn2Cc2cnc3nc(N)nc(N)c3c2C)c1`, which IC50 [1] is on record?
A: 470 nM

Q: And the IC50 [2]?
A: 570 nM

Q: And the Selectivity ratio [5]?
A: 13

Q: And the IC50 [3]?
A: 77 nM

Q: And the logP [4]?
A: 3.07

Q: And the IC50 [6]?
A: 1 µM

Q: For `COc1cccc2c1CCN2Cc1cnc2nc(N)nc(N)c2c1C`, which IC50 [1] is on record?
A: 150 nM

Q: What about the IC50 [2] of the same compound?
A: 290 nM

Q: And the IC50 [3]?
A: 48 nM

Q: With `COc1cc2c(cc1OC)N(Cc1cnc3nc(N)nc(N)c3c1C)CC2` as the compound, how does the IC50 [1] read?
A: 230 nM

Q: What about the IC50 [2] of the same compound?
A: 410 nM

Q: And the Selectivity ratio [5]?
A: 512

Q: What about the IC50 [3] of the same compound?
A: 49 nM

Q: What about the logP [4] of the same compound?
A: 2.33

Q: What about the IC50 [6] of the same compound?
A: 25.1 µM

Q: With `COc1cc(-n2cccc2)c(OC)cc1NCc1cnc2nc(N)nc(N)c2c1C` as the compound, how does the IC50 [1] read?
A: 230 nM

Q: And the IC50 [2]?
A: 350 nM

Q: And the IC50 [3]?
A: 33 nM
